# Measured values as given in patent publication US20090118350A1, “Biomarkers for Identifying Efficacy of Tegaserod in Patients with Chronic Constipation” (priority 2005, published 2009).
# Test system: patients with chronic constipation
# Assay: Clinical trial, primary efficacy: mean increase of 1 or more CSBM/week over baseline after 4 weeks of treatment (responders), by subgroup and genotype
# Format: in vivo, human
# Details: 6-mg bid vs placebo, 4 weeks
# Experimental: Introduction. A clinical trial was performed to evaluate the efficacy of tegaserod (Zelmac®/Zelnorm™) at 6 mg bid (12 mg/day) or 2 mg bid (4 mg/day) vs. placebo by measuring the number of complete spontaneous bowel movements (CSBM) during the first 4 weeks of treatment. Secondary objectives included evaluating the number of CSBM during the entire 12-week treatment period, bowel habits, laxative use, and safety and tolerability issues. The clinical trial design consisted of a 2-week baseline period without medication, a 12-week, randomized, double-blind, placebo-controlled treatment period, and a 4-week withdrawal period without study medication. As part of the clinical trial, DNA was collected from patients at screening for pharmacogenetic analysis to evaluate genetic polymorphisms relating to drug targets and disease aetiology.
# Samples. A total 1348 patients were randomized as the intent-to-treat (ITT) population. Blood samples from these patients were collected at the time of patient screening and DNA was extracted using the PUREGENE™ DNA Isolation Kit (D-50K). Of these, samples from 738 randomized patients had good quality genotype data for at least half of the 55 SNPs evaluated.
# Clinical assessments. […] The primary efficacy endpoint evaluated was the increase of 1 or more CSBM/week over baseline after 4 weeks of treatment. A secondary endpoint evaluated in this genotyping study was RESP12, the increase of 1 of more CSBM/week over baseline after 12 weeks of treatment. Patients were classified as responders if they met these criteria and had completed at least 7 days of treatment. Additional secondary efficacy assessments were evaluated based on the weekly diary assessments, such as bothersome constipation, bothersome abdominal pain, and satisfaction with bowel habits at the end of the 12-week treatment period (using the baseline value as a co-variant for analysis).
# Genotyping. A total of 61 polymorphisms in 23 candidate genes were selected for analysis. Genotyping was performed using the TaqMan® technology for most of the assays, while a few were performed in-house using the Third Wave Technologies Invader Assay technique (see TABLE 2 for assay IDs for all evaluated SNPs). Of the 61 SNPs genotyped, 55 yielded good quality, polymorphic genotypes for use in further evaluation.
# Statistical analysis. Statistical analysis was performed using SAS version 8.2 (The SAS Institute, Cary, N.C., USA). Analysis methods included Fisher's Exact tests, analysis of Covariance (ANCOVA), logistic regression, and Mantel-Haenzel tests to determine odds ratios and 95% confidence intervals, with significance established at p<0.05. Calculation of linkage disequilibrium was performed using the GOLD (graphical overview of linkage disequilibrium) method described by Abecasis & Cookson, Bioinformatics 16: 182-3 (2000).
# Demographic comparisons. TABLE 3 presents the demographic breakdown of the patients in the overall clinical study and those included in this genotype analysis. Distributions were similar between the genotype population and the total patient population. […] Based on these findings, it was decided to limit analysis to the Caucasian population, which accounted for nearly 90% of all patients, to prevent a confounding effect of race on subsequent genotype analyses. Furthermore, the analysis was also limited to those intent-to-treat patients that were treated with tegaserod or placebo for at least 7 days (total of 635 patients).
# Comparison of overall response rates. TABLE 4 presents the overall response for the primary efficacy endpoint (a mean increase in 1 or more CSBM/week over baseline after 4 weeks) for tegaserod 6-mg bid compared with placebo for both the overall patient population and the subgroup of patients for which we had genotype data (all races and Caucasians only). […]
compound,measurement,setting,value
"[H]/N=C(/NCCCCC)N/N=C/c1c[nH]c2ccc(OC)cc12 [tegaserod, Tegaserod]",Odds Ratio,"All Caucasians (ITT, >=7 days), Age <65, M + F",2.7
same,Odds Ratio,"All Caucasians (ITT, >=7 days), Age >=65, M + F",1.2
same,Odds Ratio,"All Caucasians (ITT, >=7 days), Age All, Female",2.6
same,Odds Ratio,"All Caucasians (ITT, >=7 days), Age All, M + F",2.5
same,Odds Ratio,"All Caucasians (ITT, >=7 days), Age All, Male",1.8
same,Odds Ratio,"All genotyped (ITT, >=7 days), Age <65, M + F",2.8
same,Odds Ratio,"All genotyped (ITT, >=7 days), Age >=65, M + F",2.4
same,Odds Ratio,"All genotyped (ITT, >=7 days), Age All, Female",2.7
same,Odds Ratio,"All genotyped (ITT, >=7 days), Age All, M + F",2.7
same,Odds Ratio,"All genotyped (ITT, >=7 days), Age All, Male",2.5
same,Odds Ratio,"All patients (ITT, >=7 days), Age <65, M + F",2.5
same,Odds Ratio,"All patients (ITT, >=7 days), Age >=65, M + F",1.4
same,Odds Ratio,"All patients (ITT, >=7 days), Age All, Female",2.4
same,Odds Ratio,"All patients (ITT, >=7 days), Age All, M + F",2.3
same,Odds Ratio,"All patients (ITT, >=7 days), Age All, Male",1.9
same,Odds Ratio,"Caucasians genotyped (ITT, >=7 days), Age <65, M + F, all genotypes",2.8
same,Odds Ratio,"Caucasians genotyped (ITT, >=7 days), Age >=65, M + F, all genotypes",2.1
same,Odds Ratio,"Caucasians genotyped (ITT, >=7 days), Age All, Female, all genotypes",2.7
same,Odds Ratio,"Caucasians genotyped (ITT, >=7 days), Age All, M + F, all genotypes",2.6
same,Odds Ratio,"Caucasians genotyped (ITT, >=7 days), Age All, Male, all genotypes",2.5
same,Odds Ratio,"ITT Caucasians >=7 days, 0 of 14 SNPs",1.1
same,Odds Ratio,"ITT Caucasians >=7 days, >=1 of 14 SNPs",4.1
same,Odds Ratio,"ITT Caucasians >=7 days, AQP3 (PG ID 1838) genotype CC",2.4
same,Odds Ratio,"ITT Caucasians >=7 days, AQP3 (PG ID 1838) genotype CG",2.6
same,Odds Ratio,"ITT Caucasians >=7 days, AQP3 (PG ID 1838) genotype GG",11.3
same,Odds Ratio,"ITT Caucasians >=7 days, Female (All ages), 0 of the 12 SNPs",1.5
same,Odds Ratio,"ITT Caucasians >=7 days, Female (All ages), 1-12 of the 12 SNPs",4.7
same,Odds Ratio,"ITT Caucasians >=7 days, HTR3B (PG ID 3755) genotype AA",2.7
same,Odds Ratio,"ITT Caucasians >=7 days, HTR3B (PG ID 3755) genotype AC",2.0
same,Odds Ratio,"ITT Caucasians >=7 days, HTR3B (PG ID 3755) genotype CC",8.0
same,Odds Ratio,"ITT Caucasians >=7 days, HTR4 (PG ID 1746) genotype CC",2.7
same,Odds Ratio,"ITT Caucasians >=7 days, HTR4 (PG ID 1746) genotype CT",2.2
same,Odds Ratio,"ITT Caucasians >=7 days, HTR4 (PG ID 1746) genotype TT",8.4
same,Odds Ratio,"ITT Caucasians >=7 days, HTR4 (PG ID 3743) genotype AA",3.0
same,Odds Ratio,"ITT Caucasians >=7 days, HTR4 (PG ID 3743) genotype AC",2.8
same,Odds Ratio,"ITT Caucasians >=7 days, HTR4 (PG ID 3743) genotype CC",14.0
same,Odds Ratio,"ITT Caucasians >=7 days, HTR4 (PG ID 3747) genotype AA",3.0
same,Odds Ratio,"ITT Caucasians >=7 days, HTR4 (PG ID 3747) genotype AT",2.2
same,Odds Ratio,"ITT Caucasians >=7 days, HTR4 (PG ID 3747) genotype TT",5.8
same,Odds Ratio,"ITT Caucasians >=7 days, HTR4 (PG ID 3753) genotype CC",2.7
same,Odds Ratio,"ITT Caucasians >=7 days, HTR4 (PG ID 3753) genotype CT",2.1
same,Odds Ratio,"ITT Caucasians >=7 days, HTR4 (PG ID 3753) genotype TT",7.0
same,Odds Ratio,"ITT Caucasians >=7 days, HTR4 (PG ID 3754) genotype AA",3.2
same,Odds Ratio,"ITT Caucasians >=7 days, HTR4 (PG ID 3754) genotype AT",1.9
same,Odds Ratio,"ITT Caucasians >=7 days, HTR4 (PG ID 3754) genotype TT",4.9
same,Odds Ratio,"ITT Caucasians >=7 days, HTR4 (PG ID 3756) genotype AA",2.8
same,Odds Ratio,"ITT Caucasians >=7 days, HTR4 (PG ID 3756) genotype AC",2.0
same,Odds Ratio,"ITT Caucasians >=7 days, HTR4 (PG ID 3756) genotype CC",8.1
same,Odds Ratio,"ITT Caucasians >=7 days, M + F (<65), 0 of the 12 SNPs",1.5
same,Odds Ratio,"ITT Caucasians >=7 days, M + F (<65), 1-12 of the 12 SNPs",5.3
same,Odds Ratio,"ITT Caucasians >=7 days, M + F (>=65), 0 of the 12 SNPs",0.3
same,Odds Ratio,"ITT Caucasians >=7 days, M + F (>=65), 1-12 of the 12 SNPs",7.0
same,Odds Ratio,"ITT Caucasians >=7 days, M + F (All ages), 0 of the 12 high responder SNPs",1.3
same,Odds Ratio,"ITT Caucasians >=7 days, M + F (All ages), 1-12 of the 12 high responder SNPs",5.4
same,Odds Ratio,"ITT Caucasians >=7 days, MLN (PG ID 1783) genotype CC",2.5
same,Odds Ratio,"ITT Caucasians >=7 days, MLN (PG ID 1783) genotype CT",2.0
same,Odds Ratio,"ITT Caucasians >=7 days, MLN (PG ID 1783) genotype TT",7.2
same,Odds Ratio,"ITT Caucasians >=7 days, Male (All ages), 0 of the 12 SNPs",0.3
same,Odds Ratio,"ITT Caucasians >=7 days, Male (All ages), 1-12 of the 12 SNPs",22.5
same,Odds Ratio,"ITT Caucasians >=7 days, SCNN1A (PG ID 3806) genotype GG",5.0
same,Odds Ratio,"ITT Caucasians >=7 days, SCNN1A (PG ID 3806) genotype GT",2.5
same,Odds Ratio,"ITT Caucasians >=7 days, SCNN1A (PG ID 3806) genotype TT",1.9
same,Odds Ratio,"ITT Caucasians >=7 days, SLC12A2 (PG ID 1842) genotype AA",12.0
same,Odds Ratio,"ITT Caucasians >=7 days, SLC12A2 (PG ID 1842) genotype AG",1.1
same,Odds Ratio,"ITT Caucasians >=7 days, SLC12A2 (PG ID 1842) genotype GG",2.9
same,Odds Ratio,"ITT Caucasians >=7 days, SLC12A2 (PG ID 3801) genotype CC",17.0
same,Odds Ratio,"ITT Caucasians >=7 days, SLC12A2 (PG ID 3801) genotype CT",0.8
same,Odds Ratio,"ITT Caucasians >=7 days, SLC12A2 (PG ID 3801) genotype TT",3.8
same,Odds Ratio,"ITT Caucasians >=7 days, TPH1 (PG ID 1756) genotype GG",5.4
same,Odds Ratio,"ITT Caucasians >=7 days, TPH1 (PG ID 1756) genotype GT",2.4
same,Odds Ratio,"ITT Caucasians >=7 days, TPH1 (PG ID 1756) genotype TT",1.5
same,Odds Ratio,"ITT Caucasians >=7 days, TPH1 (PG ID 3784) genotype CC",1.6
same,Odds Ratio,"ITT Caucasians >=7 days, TPH1 (PG ID 3784) genotype CT",2.4
same,Odds Ratio,"ITT Caucasians >=7 days, TPH1 (PG ID 3784) genotype TT",5.5
same,Odds Ratio,high responder genotypes of the twelve SNPs in six genes,≥ 5
